The source of these data is US11634425B2, “Pharmaceutical compounds” (priority 2019, dated 2023).

In one series the test system is Hep-G2 cells. The series is described as follows: Cell cytotoxicity (CC50). It is filed as cell-based. The following applies: mean of at least two experiments. The essentials: (§1)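 Values are means of ≥2 independent runs, rounded to whole units, from 4-parameter variable-slope curve fits. Toxicity measured in Hep-G2 cells run alongside RSV plaque-reduction assays.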

The next series concerns RSV A2. The series is described as follows: RSV plaque reduction assay. It is filed as cell-based, respiratory syncytial virus (RSV). The following applies: mean of at least two experiments. The essentials: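 RSV A2 at 100 PFU/well was premixed with eight compound dilutions and added to confluent Hep-G2 monolayers for 2 h at 37 °C. Cells were then kept 2 days under a DMEM/2% FBS/0.8% CMC overlay containing compound. Immunostained plaques were counted relative to virus controls, and EC50 came from 4-parameter fits, averaged over at least two experiments.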

Series [1] is described as follows: in vitro. It counts as in vitro ADME. The following applies: 1 μM compound, 0.5 mg/mL protein; for half-life at 1 μM: microsomes, pH 7.4, read-out: Liver Microsomal Stability t1/2. In short, it runs like this: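 Pooled liver microsomes (0.5 mg/mL protein) in 0.1 M phosphate pH 7.4 with 1 μM compound and 1 mM NADPH at 37° C., sampled at 0–45 min; minus-NADPH control at 45 min. Acetonitrile quench, LC-MS/MS; t1/2 and CLint from ln peak-area ratio vs time slope.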
On the technique in general: Liver microsomes are a subcellular fraction often used to study metabolism.

Series [2] is described as follows: in vitro. The following applies: hepatocytes, 3 μM compound, read-out: Liver Hepatocyte Stability t1/2. It counts as in vitro ADME. The method, then:
Compounds were subjected to the following assays to investigate liver microsomal stability and hepatocyte stability.
Hepatocyte Incubation: Experimental Procedure
Cryopreserved pooled hepatocytes were purchased from a reputable commercial supplier and stored in liquid nitrogen prior to use. Williams E media supplemented with 2 mM L-glutamine and 25 mM HEPES and test compound (final substrate concentration 3 μM; final DMSO concentration 0.25%) are pre-incubated at 37° C. prior to the addition of a suspension of cryopreserved hepatocytes (final cell density 0.5×10^6 viable cells/mL in Williams E media supplemented with 2 mM L-glutamine and 25 mM HEPES) to initiate the reaction. The final incubation volume is 500 μL. Two control compounds were included with each species, alongside appropriate vehicle control. The reactions are stopped by transferring 50 μL of incubate to 100 μL acetonitrile containing internal standard at the appropriate time points. Samples were removed at 6 time points (0, 5, 15, 30, 45 and 60 min) over the course of a 60 min experiment. The termination plates are centrifuged at 2500 rpm at 4° C. for 30 min to precipitate the protein. Following protein precipitation, the sample supernatants were combined in cassettes of up to 4 compounds and analysed using generic LC-MS/MS conditions. From a plot of ln peak area ratio (compound peak area/internal standard peak area) against time, the gradient of the line is determined. Subsequently, half-life (t1/2) and intrinsic clearance (CLint) were calculated.

Another series in a line: Cell cytotoxicity (CC50). It counts as cell-based. The following applies: human; mean of at least two experiments. The essentials:
as §1

Another series is described as follows: Thermodynamic solubility. It is filed as physicochemical. The following applies: aqueous buffer, thermodynamic from solid; typically phosphate buffered saline pH 7.4, ambient temperature overnight. The method, then: Test compound (2.5 mg of solid; n=1) was weighed in an amber glass vial and buffer (0.5 mL) was added (typically phosphate buffered saline pH 7.4). The solution was agitated at ambient temperature overnight using a vial roller system. The solution was then filtered (0.45 μm pore size; without pre-saturation). Duplicate aliquots (50 μL) are sampled from the filtrate and diluted with one volume of Milli-Q water and methanol (1:1 v/v) before analysis by HPLC-UV. A standard was prepared in DMSO at 10 mg/mL (n=1) which was then diluted 10-fold in Milli-Q water and methanol (1:1 v/v) to give a 1 mg/mL solution. The concentration of test compound in the filtrate was quantified relative to the concentration standard. Analysis was performed using a gradient HPLC-MS system.

The test system of another series is RSV. The following applies: Antimicrobial Agents and Chemotherapy, September 2007, 3346-3353; cited from earlier work.
The nature of another series: in vivo. It counts as in vivo. The following applies: male Beagle dog. The method, then: The pharmacokinetics of compounds were studied in vivo in dogs at doses of 0.5 mg/kg (IV) and 4 mg/kg (PO).
Male Beagle dogs were treated with experimental compounds via intravenous administration (n=2; 0.5 mg/kg) or oral administration (n=2; 3 or 4 mg/kg). Compounds were formulated as a solution in 20% dimethylacetamide/80% (2-hydroxypropyl)-β-cyclodextrin (20% w/v) (IV administration) or a solution in 10% dimethylacetamide/90% (2-hydroxypropyl)-β-cyclodextrin (20% w/v) (PO administration). […] Serial blood samples were collected from the jugular vein at 0.03, 0.08, 0.25, 0.5, 1, 2, 4, 6, 8 and 24 h post IV dosing of compound, and at 0.08, 0.25, 0.5, 1, 2, 4, 6, 8 and 24 h post oral dosing of compound, and plasma was prepared by centrifugation and stored immediately at −80° C. Samples were subsequently thawed, prepared for analysis by protein precipitation with acetonitrile, and analysed by tandem LCMS using electrospray ionisation using a matrix-matched calibration curve. PK parameters were calculated from the resulting data.

[3] abbreviates: human respiratory syncytial virus, HepG2, Hep-G2 cells.

Converted amounts (≈) assume the structure as drawn. Read-outs that look alike come from different tables or passages of the source.

For the compound `O=C(N[C@H]1N=C(c2ccccc2)c2cccc(F)c2NC1=O)c1c(-c2ccc3[nH]ncc3c2)nc2cccnn12` [Example 126, N-[(3S)-9-fluoro-2-oxo-5-phenyl-1,3-dihydro-1,4-benzodiazepin-3-yl]-2-(1H-indazol-5-yl)imidazo[1,2-b]pyridazine-3-carboxamide], the CC50 (commonly the concentration that lowers cell viability or growth by half) with Hep-G2 cells is more than 25000 nM. Moreover, a half-maximal effect with RSV A2 (Hep-G2 cells) (EC50) was put at 56 nM. Also, the “Liver Microsomal Stability t1/2” value in the series “in vitro [1]” (dog) was found to be 0.563 h; in “in vitro [1]” (human), 5.2 h; in “in vitro [1]” (rat), 6.88 h.

As to `Cc1nc2ccc(Cl)nn2c1C(=O)N[C@H]1N=C(c2ccccc2)c2ccccc2NC1=O` [Example 21, 6-Chloro-2-methyl-N-[(3S)-2-oxo-5-phenyl-1,3-dihydro-1,4-benzodiazepin-3-yl]imidazo[1,2-b]pyridazine-3-carboxamide], the half-life at 3 μM in “in vitro [2]” (dog) was 2.55 h; in “in vitro [2]” (human), 2.52 h; in “in vitro [2]” (rat), 1.5 h. Moreover, in the series “Cell cytotoxicity (CC50)”, the CC50 was more than 25000 nM. Besides, the solubility (thermodynamic) (usually solubility found after equilibrating the solid with the medium) in the series “Thermodynamic solubility” is 4.64 µM (≈ 2.06 µg/mL). Also, the midpoint of the response in the series on RSV A2 (setting [3]), the EC50, lay at 147 nM. For the same compound, the half-life at 1 μM in “in vitro [1]” (dog) amounted to 2.95 h; in the series “in vitro [1]” (human), 2.15 h; in the series “in vitro [1]” (rat), 1.04 h.

In turn, “2-[2-Methyl-6-(propan-2-ylamino)pyridin-3-yl]-N-[(3S)-9-fluoro-2-oxo-5-phenyl-1,3-dihydro-1,4-benzodiazepin-3-yl]pyrazolo[1,5-a]pyrimidine-3-carboxamide [Example 61]” returned a CC50 in the series with Hep-G2 cells of more than 25000 nM. The EC50 – broadly, the concentration at which the effect is half-maximal – with RSV A2 (Hep-G2 cells) came to 25 nM. Also, the entries for the “Liver Microsomal Stability t1/2” value in “in vitro [1]” (dog), in the series “in vitro [1]” (human) and in “in vitro [1]” (rat) were 0.392 h, 2.2 h and 1.07 h, respectively.

With `O=C(Nc1ccccc1F)N[C@H]1N=C(c2ccccc2)c2ccccc2NC1=O` [RSV604], in the series with RSV, the anti-RSV activity entry was “sub-micromolar”.

For the compound “N-[(3S)-9-Fluoro-2-oxo-5-phenyl-1,3-dihydro-1,4-benzodiazepin-3-yl]-2-(2-fluorophenyl)-7-methylpyrazolo[1,5-a]pyrimidine-3-carboxamide [Example 38]”, the CC50 in the series with Hep-G2 cells is more than 25000 nM. The compound also showed an EC50 in the series on RSV A2 (Hep-G2 cells) of 27 nM. Besides, the “Liver Microsomal Stability t1/2” value is 2.75 h in “in vitro [1]” (dog), more than 2.33 h in “in vitro [1]” (human) and 1.98 h in the series “in vitro [1]” (rat).

In the case of `Cc1nc2ccc(Cl)nn2c1C(=O)N[C@H]1N=C(c2ccccc2)c2cccc(F)c2NC1=O` [Example 20, 6-Chloro-N-[(3S)-9-fluoro-2-oxo-5-phenyl-1,3-dihydro-1,4-benzodiazepin-3-yl]-2-methylimidazo[1,2-b]pyridazine-3-carboxamide], the half-life at 3 μM turned out to be 2.2 h in “in vitro [2]” (dog), 2.18 h in the series “in vitro [2]” (human) and 2.92 h in the series “in vitro [2]” (rat). Further, the Vd (in general, a proportionality between amount in the body and measured concentration, not a real space) in “in vivo” (in vivo, IV 0.5 mg/kg) came to 1.2 L/kg. For the same compound, in the series “in vivo” (in vivo, IV 0.5 mg/kg), the clearance (usually a measure of how efficiently the substance is removed, as volume per time) was determined as 1.6 mL/min/kg. Besides, the Cmax – broadly, the maximum level reached in the sampled fluid or tissue – in “in vivo” (in vivo, IV 0.5 mg/kg / PO 3 or 4 mg/kg study) stood at 3850 ng/mL. In addition, the half-life is 10.3 h in “in vivo” (in vivo, IV 0.5 mg/kg, read-out: IV t1/2 (converted)) and 19.2 h in the series “in vivo” (in vivo, PO 3 or 4 mg/kg, read-out: PO t1/2 (converted)). Moreover, the AUC(0-t) in “in vivo” (in vivo, PO 3 or 4 mg/kg, read-out: PO AUClast) worked out at 43700 ng·h/mL. Moreover, the “C 8 h” value in the series “in vivo” (8 h, IV 0.5 mg/kg / PO 3 or 4 mg/kg study) stood at 1581 ng/mL. This compound registered a F in “in vivo” (IV 0.5 mg/kg, PO 3 or 4 mg/kg) of 118%. The half-maximal cytotoxic concentration (CC50) in “Cell cytotoxicity (CC50)” is more than 25000 nM. Also, in the series “Thermodynamic solubility”, the solubility (thermodynamic) turned out to be 3.84 µM (≈ 1.78 µg/mL). The compound further yielded an EC50 in the series with RSV A2 (setting [3]) of 114 nM. The half-life at 1 μM in the series “in vitro [1]” (dog) was more than 2.33 h; in the series “in vitro [1]” (human), more than 2.33 h; in the series “in vitro [1]” (rat) it was 1.68 h.

Compound `Cc1ccc2nc(-c3ccc(N4CCOCC4)nc3)c(C(=O)N[C@H]3N=C(c4ccccc4)c4cccc(F)c4NC3=O)n2n1` [Example 105, N-[(3S)-9-fluoro-2-oxo-5-phenyl-1,3-dihydro-1,4-benzodiazepin-3-yl]-6-methyl-2-(6-morpholin-4-ylpyridin-3-yl)imidazo[1,2-b]pyridazine-3-carboxamide] gave a half-maximal cytotoxic concentration (CC50) in the series with Hep-G2 cells of more than 25000 nM. The compound further gave an EC50 with RSV A2 (Hep-G2 cells) of 38 nM.

With `CN1CCc2ccc(-c3nn4cccnc4c3C(=O)N[C@H]3N=C(c4ccccc4)c4ccccc4NC3=O)cc21` [Example 11, 2-(1-Methyl-2,3-dihydroindol-6-yl)-N-[(3S)-2-oxo-5-phenyl-1,3-dihydro-1,4-benzodiazepin-3-yl]pyrazolo[1,5-a]pyrimidine-3-carboxamide], the CC50 in the series on Hep-G2 cells is more than 25000 nM. Besides, a half-maximal response in the series with RSV A2 (Hep-G2 cells) (EC50) required 89 nM.

In the series on Hep-G2 cells, “2-[4-Methyl-6-(propan-2-ylamino)pyridin-3-yl]-N-[(3S)-9-fluoro-2-oxo-5-phenyl-1,3-dihydro-1,4-benzodiazepin-3-yl]pyrazolo[1,5-a]pyrimidine-3-carboxamide [Example 62]” showed a CC50 of more than 25000 nM. Also, in the series on RSV A2 (Hep-G2 cells), the midpoint of the response, the EC50, lay at 74 nM. In addition, the “Liver Microsomal Stability t1/2” value in “in vitro [1]” (dog) was 0.828 h; in the series “in vitro [1]” (human), more than 2.33 h; in “in vitro [1]” (rat), 1.19 h.

In the series with Hep-G2 cells, “N-[(3S)-9-Fluoro-2-oxo-5-phenyl-l,3-dihydro-1,4-benzodiazepin-3-yl]-2-phenylpyrazolo[1,5-a]pyrimidine-3-carboxamide [Example 17]” displayed a CC50 of more than 25000 nM. In the series with RSV A2 (Hep-G2 cells), the response was half-maximal at 90 nM (EC50).
